This series deals with human liver microsomes, LC/MS/MS parent remaining, 60 min. Briefly: human hepatic microsomal compound turnover – biochemical, ADME assay, late-stage follow-up (AID 1555). The following applies: at 1 µM, stronger effect = lower value.

Percent remaining data for one compound are collected here from PubChem BioAssay AID1555 (Sanford-Burnham Center for Chemical Genomics, 2009).

Take `C=CCn1c(SCC(=O)c2ccc(O)c(O)c2)nnc1-c1ccccc1OC`: the percent remaining is 47%. Further, the percent remaining (measured here: remaining without NADPH control) worked out at 100%.
